Experimental data: US20230023092A1, “TREATMENT OF DEPRESSION AND OTHER VARIOUS DISORDERS WITH PSILOCYBIN” (COMPASS […], priority 2019, published 2023)
Values after ≈ are worked out from the molar mass of the structure shown.

Assays:
healthy subjects [1] = test: Scale of Social Responsibility (SSR); format: in vivo, human
Method: In some embodiments, the Scale of Social Responsibility (SSR) is utilized to evaluate the safety and/or efficacy of psilocybin. The SSR measures perceptions regarding the importance of ethics and social responsibility.
The Pictorial Empathy Test (PET), Reading the Mind in the Eyes Test (RMET), Scale of Social Responsibility (SSR), Social Value Orientation (SVO), and Toronto Empathy Questionnaire (TEQ) were performed. Table 20 summarizes the results of the mixed model for repeated measures (MMRM) analysis for each of the aforementioned social cognition panel scales measured on Day 7 and Day 84 after study drug administration.

[2] = Solubility and hygroscopicity of psilocybin (Polymorph A or A′); format: physicochemical; conditions: in Water; form Polymorph A or A′
Description: In some embodiments, the psilocybin of the disclosure in the form Polymorph A or A′ has the general properties illustrated in Table D.

healthy subjects [3] = test: CANTAB global composite score; format: in vivo, human; conditions: 10 mg, Day 7
Method: The following list of outcome measures are non-exhaustive. • a. The short-term change from Baseline (Day −1 [Visit 2]) to Day 7 (Visit 5) in cognitive measures of attention, spatial and working memory and executive function was measured by a composite score of the CANTAB Panel (Spatial Working Memory [SWM], Rapid Visual Information Processing [RVP], Paired Associates Learning [PAL]). • b. The short-term change from Baseline (Day −1 [Visit 2]) to Day 7 (Visit 5) in Social Cognition Panel scales (Pictorial Empathy Test [PET], Reading the Mind in the Eyes Test [RMET], Toronto Empathy Questionnaire [TEQ], Social Value Orientation [SVO], Scale of Social Responsibility [SSR]). • c. The change from Baseline (Day −1 [Visit 2]) to Day 28 (Visit 6) in cognitive measures of attention, spatial and working memory and executive function as measured by a composite score of the CANTAB Panel (SWM, RVP, PAL). • d. […] Dose-related differences between cognitive effects of psilocybin at Baseline (Day −1 [Visit 2]), Day 7 (Visit 5) and Day 28 (Visit 6), as measured by a composite score of the CANTAB Panel (SWM, RVP, PAL). • f. Dose-related differences between psychological effects of psilocybin at Baseline (Day −1 [Visit 2]), Day 7 (Visit 5) and Day 84 (Visit 7), as measured by Social Cognition Panel scales (PET, RMET, TEQ, SVO, SSR). • g. […]

[4] = Day 7, psilocybin 10 mg - placebo
[5] = Day 7, psilocybin 25 mg - 10 mg
[6] = Day 7, psilocybin 25 mg - placebo
[7] = Day 84, psilocybin 10 mg - placebo
[8] = Day 84, psilocybin 25 mg - 10 mg
[9] = Day 84, psilocybin 25 mg - placebo

In the case of `CN(C)CCc1c[nH]c2cccc(OP(=O)(O)O)c12` [Psilocybin, psilocybin], the “SSR compliance social rules change from baseline (LS mean)” value (healthy subjects [1]; Day 7, psilocybin 10 mg) is reported as −0.1, the “SSR fullfilling expectations change from baseline (LS mean)” value (healthy subjects [1]; Day 7, psilocybin 10 mg) is reported as −0.1 and the “SSR global change from baseline (LS mean)” value (healthy subjects [1]; Day 7, psilocybin 10 mg) is reported as −2.0. The “SSR compliance social rules change from baseline, LS mean difference” value (healthy subjects [1]; [4]) was 0.0, the “SSR fullfilling expectations change from baseline, LS mean difference” value (healthy subjects [1]; [4]) was 0.1 and the “SSR global change from baseline, LS mean difference” value (healthy subjects [1]; [4]) was 1.2. The “SSR compliance social rules change from baseline (LS mean)” value (healthy subjects [1]; Day 7, psilocybin 25 mg) was 0.0, the “SSR fullfilling expectations change from baseline (LS mean)” value (healthy subjects [1]; Day 7, psilocybin 25 mg) was −0.0 and the “SSR global change from baseline (LS mean)” value (healthy subjects [1]; Day 7, psilocybin 25 mg) was −0.3. The “SSR compliance social rules change from baseline, LS mean difference” value (healthy subjects [1]; [5]) was 0.1, the “SSR fullfilling expectations change from baseline, LS mean difference” value (healthy subjects [1]; [5]) was 0.1 and the “SSR global change from baseline, LS mean difference” value (healthy subjects [1]; [5]) was 1.6. The “SSR compliance social rules change from baseline, LS mean difference” value (healthy subjects [1]; [6]) was 0.1, the “SSR fullfilling expectations change from baseline, LS mean difference” value (healthy subjects [1]; [6]) was 0.2 and the “SSR global change from baseline, LS mean difference” value (healthy subjects [1]; [6]) was 2.8. The “SSR compliance social rules change from baseline (LS mean)” value (healthy subjects [1]; Day 84, psilocybin 10 mg) was −0.1, the “SSR fullfilling expectations change from baseline (LS mean)” value (healthy subjects [1]; Day 84, psilocybin 10 mg) was −0.2 and the “SSR global change from baseline (LS mean)” value (healthy subjects [1]; Day 84, psilocybin 10 mg) was −1.8. The “SSR compliance social rules change from baseline, LS mean difference” value (healthy subjects [1]; [7]) was −0.0, the “SSR fullfilling expectations change from baseline, LS mean difference” value (healthy subjects [1]; [7]) was −0.1 and the “SSR global change from baseline, LS mean difference” value (healthy subjects [1]; [7]) was 0.3. For the same molecule, the “SSR compliance social rules change from baseline (LS mean)” value (healthy subjects [1]; Day 84, psilocybin 25 mg) was 0.0, the “SSR fullfilling expectations change from baseline (LS mean)” value (healthy subjects [1]; Day 84, psilocybin 25 mg) was −0.0 and the “SSR global change from baseline (LS mean)” value (healthy subjects [1]; Day 84, psilocybin 25 mg) was 0.1. For the same molecule, the “SSR compliance social rules change from baseline, LS mean difference” value (healthy subjects [1]; [8]) was 0.1, the “SSR fullfilling expectations change from baseline, LS mean difference” value (healthy subjects [1]; [8]) was 0.2 and the “SSR global change from baseline, LS mean difference” value (healthy subjects [1]; [8]) was 1.8. The “SSR compliance social rules change from baseline, LS mean difference” value (healthy subjects [1]; [9]) was 0.1, the “SSR fullfilling expectations change from baseline, LS mean difference” value (healthy subjects [1]; [9]) was 0.0 and the “SSR global change from baseline, LS mean difference” value (healthy subjects [1]; [9]) was 2.2. The solubility [2] was roughly 15 mg/mL (≈ 52.8 mM), the “CANTAB global composite score, effect size of difference from placebo” value (healthy subjects [3]) was 0.53 and the “CANTAB global composite score, LS mean difference from placebo” value (healthy subjects [3]; p value ~0.04460) was −0.1832.
